The values below come from patent US20060116419A1, “Nf-kb inhibitors” (priority 2002, published 2006).

One data set has as its target T1, IKK-β (Homo sapiens, UniProt O14920).
T1 construct: GST; made in house
T1 sequence (O14920 1-756): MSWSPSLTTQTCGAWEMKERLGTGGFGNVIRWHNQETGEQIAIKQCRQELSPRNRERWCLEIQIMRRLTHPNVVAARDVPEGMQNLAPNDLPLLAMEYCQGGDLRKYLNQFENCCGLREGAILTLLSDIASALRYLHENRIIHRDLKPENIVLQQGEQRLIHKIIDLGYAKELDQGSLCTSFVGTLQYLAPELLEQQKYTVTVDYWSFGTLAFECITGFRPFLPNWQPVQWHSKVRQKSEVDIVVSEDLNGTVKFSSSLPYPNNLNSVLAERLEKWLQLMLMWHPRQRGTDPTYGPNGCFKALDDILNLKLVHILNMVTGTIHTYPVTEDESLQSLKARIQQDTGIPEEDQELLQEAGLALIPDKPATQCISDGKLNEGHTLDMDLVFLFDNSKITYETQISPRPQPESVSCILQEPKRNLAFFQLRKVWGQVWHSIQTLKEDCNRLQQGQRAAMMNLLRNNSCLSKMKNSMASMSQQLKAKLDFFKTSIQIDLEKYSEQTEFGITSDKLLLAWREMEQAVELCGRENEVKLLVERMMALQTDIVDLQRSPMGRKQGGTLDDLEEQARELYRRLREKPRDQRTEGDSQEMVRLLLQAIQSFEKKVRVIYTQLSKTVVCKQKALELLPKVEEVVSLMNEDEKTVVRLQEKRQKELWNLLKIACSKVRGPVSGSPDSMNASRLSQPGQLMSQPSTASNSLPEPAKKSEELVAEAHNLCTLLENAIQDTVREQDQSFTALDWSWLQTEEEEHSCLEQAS
Briefly: IKK-β kinase assay (phosphorylation of N-terminal fragment of IκB-α). The format is biochemical.

The subject of another data set is IκB-α. Description: Degradation of IκB-α in cells activated with pro-inflammatory stimuli (Western blot). The format is cell-based. The settings on record: human monocytes and other mammalian cells; activation with pro-inflammatory stimuli (e.g. TNF-α, LPS). The method, then:
NF-κB activity may also be measured in an electrophoretic mobility shift assay (EMSA) to assess the presence of NF-κB protein in the nucleus. The cells of interest are cultured to a density of 1×10^6/mL. The cells are harvested by centrifugation, washed in PBS without Ca^2+ and Mg^2+ and resuspended in PBS with Ca^2+ and Mg^2+ at 1×10^7 cells/mL. To examine the effect of compound on the activation of NF-κB, the cell suspensions are treated with various concentrations of drug or vehicle (DMSO, 0.1%) for 30 min. at 37° C. prior to stimulation with TNF-α (5.0 ng/mL) for an additional 15 min. Cellular and nuclear extracts are prepared follows. Briefly, at the end of the incubation period the cells (1×10^7 cells) are washed 2× in PBS without Ca^2+ and Mg^2+. The resulting cell pellets are resuspended in 20 uL of Buffer A (10 mM Hepes (pH 7.9), 10 mM KCl, 1.5 mM MgCl2, 0.5 mM dithiothreitol (DTT) and 0.1% NP-40) and incubated on ice for 10 min. […] All samples are stored at −80° C. until analyzed. The protein concentration of the extracts is determined according to the method of Bradford (Bradford, 1976) with BioRad reagents.
The effect of compounds on the phosphorylation of IκB may be monitored in a Western blot. […] Immunoreactive bands are detected using the Enchanced Chemiluminescence (ECL) assay system (Amersham Corp., Arlington Heights, Ill.).

The next data set relates to NF-κB. Description: Nuclear translocation of NF-κB in activated cells (EMSA). The data set is classed as cell-based. The following applies: human monocytes and other mammalian cells; activation with pro-inflammatory stimuli (e.g. TNF-α, LPS). Here is the method:
NF-κB activity may also be measured in an electrophoretic mobility shift assay (EMSA) to assess the presence of NF-κB protein in the nucleus. The cells of interest are cultured to a density of 1×10^6/mL. The cells are harvested by centrifugation, washed in PBS without Ca^2+ and Mg^2+ and resuspended in PBS with Ca^2+ and Mg^2+ at 1×10^7 cells/mL. To examine the effect of compound on the activation of NF-κB, the cell suspensions are treated with various concentrations of drug or vehicle (DMSO, 0.1%) for 30 min. at 37° C. prior to stimulation with TNF-α (5.0 ng/mL) for an additional 15 min. Cellular and nuclear extracts are prepared follows. Briefly, at the end of the incubation period the cells (1×10^7 cells) are washed 2× in PBS without Ca^2+ and Mg^2+. The resulting cell pellets are resuspended in 20 uL of Buffer A (10 mM Hepes (pH 7.9), 10 mM KCl, 1.5 mM MgCl2, 0.5 mM dithiothreitol (DTT) and 0.1% NP-40) and incubated on ice for 10 min. The nuclei are pelleted by microcentrifugation at 3500 rpm for 10 min at 4° C. […] All samples are stored at −80° C. until analyzed. The protein concentration of the extracts is determined according to the method of Bradford (Bradford, 1976) with BioRad reagents.
The effect of compounds on transcription factor activation is assessed in an electrophoretic mobility shift assay (EMSA) using nuclear extracts from treated cells as described above. […]

Data set [1] has as its system LPS-stimulated human monocytes. Briefly: Pro-inflammatory mediator production from LPS-stimulated human monocytes. The data set is classed as cell-based. The method, then:
(§1) Effect of IKK-β inhibition on human monocyte stimulated eicosanoid and cytokine production was assessed as follows: Monocytes were isolated from heparinized whole blood by double gradient centrifugation as previously described. Isolated monocyte enriched PBMCs were then adhered to 24 well culture plates at 2×10^6 cells/mL in RPMI 1640 10% FBS (Hyclone, Logan, Utah) for 2 h. to further enrich the monocyte population. The media was then removed, cells washed once with RPMI 1640, and 1 mL RPMI 1640 10% FBS was added to the wells. Test compounds are added to the wells with a final vehicle concentration of 0.05% DMSO. Monocytes were activated by the addition of 200 ng/mL endotoxin (LPS; E. coli serotype 026:B6)(Sigma, St. Louis, Mo.) and incubated for 24 hrs. Cell-free supernates were analyzed by ELISA for TNF-α (EIA developed at SB), PGE2 (Cayman Chemical, Ann Arbor, Mich.), and IL-8 and IL-6 Biosource International, Camarillo, Calif.). Viability of the cells was determined by trypan blue exclusion.

Data set [2] has as its system human primary synovial fibroblasts. Briefly: Mediator production by stimulated human primary synovial fibroblasts. The format is cell-based. Here is the method: The effect of IKK-β inhibitors on primary synovial fibroblast mediator production was assesses as follows: Primary cultures of human RSF were obtained by enzymatic digestion of synovium obtained from adult patients with rheumatoid arthritis as previously described (Roshak et al., 1996b). Cells were cultured in Earl's Minimal Essential Medium (EMEM) which contained 10% fetal bovine serum (FBS), 100 units/ml penicillin and 100 μg/ml streptomycin (GIBCO, Grand Island, N.Y.), at 37° C. and 5% CO2. Cultures were used at passages 4 through 9 in order to obtain a more uniform type B fibroblast population. For some studies, fibroblasts were plated at 5×10^4 cells/mL in 16 mm (diameter) 24 well plates (Costar, Cambridge, Mass.). Cells (70-80% confluence) were exposed to IL-1β (1 ng/mL) (Genzyme, Cambridge, Mass.) for the designated time. Drugs in DMSO vehicle (1%) were added to the cell cultures 15 minutes prior to the addition of IL-1. Studies were conducted 3-4 times using synovial cells from different donors. RSF cellular extracts were prepared from cells treated as described above. Briefly, human RSF were removed by trypsin/EDTA, washed, and harvested by centrifugation. Cellular extracts were prepared as previously described (Dignam et al., 1983; Osborn, et al., 1989). Briefly, at the end of the incubation period the cells (1×10^7 cells) were washed 2× in PBS without Ca^2+ and Mg^2+. […]

Data set [3] can be described thus: Oral bioavailability in rat. The data set is classed as in vivo.
Data set [4] is described as follows: Oral bioavailability in mouse. The data set is classed as in vivo.
A short description of data set [5]: In vivo DMPK profile in preclinical species. The following applies: preclinical species tested, compared with analog lacking the 4′-F group.
The next data set has as its system IL-8 production. Briefly: Inhibition of IL-8 production through inhibition of NF-κB. The data set is classed as cell-based. The following applies: through the inhibition of NF-κB. Here is the method: as §1

Method for IKK-β: IKK-β was expressed as a GST-tagged protein, and its activity was assessed in a 96-well scintillation proximity assay (SPA). Briefly, IKK-β was diluted in assay buffer as described above (20 nM final), with various concentrations of compound or DMSO vehicle, 240 nM ATP and 200 nCi [γ-^33P]-ATP (10 mCi/mL, 2000 Ci/mmol; NEN Life Science Products, Boston, Mass.). The reaction was started with the addition of a biotinylated peptide comprising amino acids 15-46 of IκB-α (American Peptide) to a final concentration of 2.4 μM, in a total volume of 50 uL. The sample incubated for one hour a 30° C., followed by the addition of 150 uL of stop buffer (PBS w/o Ca^2+, Mg^2+, 0.1% Triton X-100 (v/v), 10 mM EDTA) containing 0.2 mg streptavidin-coated SPA PVT beads (Amersham Pharmacia Biotech, Piscataway, N.J.). The sample was mixed, incubated for 10 min. at room temperature, centrifuged (1000×g, 2 minutes), and measured on a Hewlett-Packard TopCount.

`NC(=O)Nc1sc(-c2ccc(F)cc2)cc1C(N)=O` [Formula I, 5-(4-fluoro-phenyl)-2-ureido-thiophene-3-carboxylic acid amide]: the “inhibition of phosphorylation of the N-terminal fragment of IκB-α by IKK-β” value against IKK-β is on record as “inhibit the phosphorylation of the N-terminal fragment of IκB-α by IKK-β”. At IKK-β (compared with analog lacking the 4′-F group), the “IKK-2 inhibitory activity relative to the analog lacking the 4′-F group” value is given as “comparable IKK-2 inhibitory activity”. Also, the “degradation of IκB-α” value in the data set on IκB-α is listed as “blocks the degradation of IκB-α”. Besides, the “nuclear translocation of NF-κB” value in the data set with NF-κB is reported as “blocks”. Moreover, the pro-inflammatory mediator production entry in data set [1] and in data set [2] was “inhibits pro-inflammatory mediator production” throughout. Moreover, the oral bioavailability result in [3] and in data set [4] was “orally bioavailable” throughout. Also, in data set [5], the “DMPK profile relative to the analog lacking the 4′-F group” value is “significantly improved DMPK profile”. For the same compound, the “inhibition of IL-8 production” value with IL-8 production is listed as “has been demonstrated”.
